These results are taken from PMC8621373, “New Bioactive Fused Triazolothiadiazoles as Bcl-2-Targeted Anticancer Agents” (International Journal of Molecular Sciences, 2021).

In one data set the test system is KG1a. The data set is described as follows: Cell viability CellTiter-Blue assay, KG1a. The data set is classed as cell-based, human. As to conditions: for IC50: Homo sapiens, KG-1a, growth inhibition, CellTiter-Blue, 24 h, mean ± SEM. As to the method: (§1) Human acute myeloid leukemia KG1a and acute T-cell lymphocytic leukemia Jurkat cells were cultured and maintained as previously described. For each experiment, 15,000 cells in 0.1 mL of medium were seeded into a solid-black fluorescence 96-well plate and incubated for 24 h. The cells were treated with different concentrations of the test compounds (from 0.00001 to 100 µM) over a 10-fold dilution series and incubated for 24 h. CellTiter-Blue® solution was added, followed by reading of the fluorescence according to our previous protocol. IC50 values were obtained by using GraphPad Prism 5 software (San Diego, CA, USA). For each concentration, six independent experiments were carried out.
For orientation: The colour change of resazurin is a common sign of viable cells or microbes.

A further data set relates to Jurkat. The data set is described as follows: Cell viability CellTiter-Blue assay, Jurkat (Bcl-2-negative). It is filed as cell-based, human. As to conditions: Bcl-2-negative cell line; for IC50: Homo sapiens, Jurkat, growth inhibition, CellTiter-Blue, 24 h, mean ± SEM. As to the method:
as §1

The test system of the next data set is HeLa. Description: Cell viability by MTT assay, HeLa. The data set is classed as cell-based. As to conditions: Homo sapiens, growth inhibition, 72 h, mean ± SEM. As to the method: (§2) Human breast cancer (MDA-MB-231) and cervical cancer (HeLa) cells, obtained from the ATCC (Manassas, VA, USA), were maintained as previously described. Cytotoxic effects of the tested compounds were assessed using MTT assay. Briefly, 4000 cells in 0.1 mL of medium (Life Technologies, Paisley, UK) were seeded and allowed to adhere for 24 h. The cells were treated with different concentrations of the tested compounds (from 0.00001 to 100 µM) and incubated for 72 h. In total, 20 µL of (5 mg/mL) MTT reagent (3-[4,5-dimethylthiazol-2-yl]-2,5-diphenyl tetrazolium bromide) in PBS was added and incubated for 4 h. The developed purple colour following the addition of DMSO was measured using a Multiskan Go machine (spectrophotometer) at 570 nm absorbance. Each concentration experiment was repeated independently 6 times to establish reproducibility. The percentage cell viability was calculated following the formula below, and IC50 values were obtained by using GraphPad Prism 5 software (San Diego, CA, USA). Cell viability (%) = [(OD test − OD blank) ÷ (OD negative control − OD blank)] × 100(1)
For orientation: Tetrazolium dyes change colour on reduction, which living cells bring about.

Another data set concerns MDA-MB-231. The data set is described as follows: Cell viability by MTT assay, MDA-MB-231. As to conditions: Homo sapiens, growth inhibition, 72 h, mean ± SEM. It is filed as cell-based. The procedure: as §2
The next data set concerns the target His-tagged Bcl-2 protein (Homo sapiens, UniProt P10415). Description: Competitive ELISA binding assay (interruption of Bcl-2-Bim interaction). As to conditions: for IC50: competition with Bim peptide, mean and SEM of three independent measurements. As to the method:
ELISA assay was performed to evaluate the ability of the compounds to compete with Bim protein and inhibit its interaction with Bcl-2 protein.. The addition of His-tagged Bcl-2 protein to a biotinylated Bim-coated plate according to our previously published protocol was followed by the addition of anti-His antibody (Abcam, Cambridge, UK) containing horseradish peroxidase enzyme (Qiagen, Crawley, UK), o-phenylenediamine (Sigma-Aldrich, UK) and hydrogen peroxide. The optical density was determined using a plate reader at wavelength of 450 nm. The experiments were carried out on three separate occasions, including both negative and positive controls. A plot of log nM concentration for each inhibitor against the percentage reduction in the Bim peptide was created, using non-linear regression curve analysis (GraphPad Prism 5, San Diego, CA, USA) and a software used to generate IC50 for the Bcl-2 inhibition activity.

Data set [1] concerns Bcl-2-expressing human cancer cell lines (MDA-MB-231, HeLa and KG1a). The data set is described as follows: Growth inhibition of Bcl-2-expressing human cancer cell lines (summary). As to conditions: span over MDA-MB-231, HeLa and KG1a, read-out: IC50 against Bcl-2-expressing cell lines. The data set is classed as cell-based. The procedure:
as §2, with “Cell viability (%) = [(OD test − OD blank) ÷ (OD negative control − OD blank)] × 100(1)” left out
Human acute myeloid leukemia KG1a and acute T-cell lymphocytic leukemia Jurkat cells were cultured and maintained as previously described. For each experiment, 15,000 cells in 0.1 mL of medium were seeded into a solid-black fluorescence 96-well plate and incubated for 24 h. […] CellTiter-Blue® solution was added, followed by reading of the fluorescence according to our previous protocol. […]

“And” between values parts separate entries of the source, which are not always exact repeats. Identical values can stand only once. “Also recorded” adds a separate entry of the source.

His-tagged Bcl-2 protein, sequence (P10415 whole entry): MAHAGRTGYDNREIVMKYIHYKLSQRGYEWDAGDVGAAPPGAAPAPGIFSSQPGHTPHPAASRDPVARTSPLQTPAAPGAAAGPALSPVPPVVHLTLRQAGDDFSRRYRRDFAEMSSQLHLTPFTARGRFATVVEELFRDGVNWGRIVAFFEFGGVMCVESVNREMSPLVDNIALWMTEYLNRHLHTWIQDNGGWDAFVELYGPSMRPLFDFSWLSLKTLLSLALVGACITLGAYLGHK

As a reminder, the IC50 is the midpoint of a concentration-inhibition curve. Usually melting point stands for the temperature of the solid-liquid transition. Consider `Sc1nn2c(-c3c[nH]c4ccccc34)nnc2s1` [Compound 4, 3-(1H-Indol-3-yl)-[1,2,4]-triazolo[3,4-b]-[1,3,4]-thiadiazole-6-thiol], for which the melting point lay in the range of 170 to 172 °C. For the same molecule, the IC50 in the data set on KG1a stood at 28.4 ± 0.43 µM. In the data set with Jurkat, this molecule gave an IC50 of 10.3 ± 0.14 µM. The molecule further returned an IC50 in the data set on HeLa of 18.2 ± 0.6 µM. Moreover, in the data set on MDA-MB-231, the 50% inhibitory concentration (IC50) is 15 ± 0.6 µM.
Molecule `Ic1ccc(-c2nn3c(-c4c[nH]c5ccccc45)nnc3s2)cc1` [Compound 5a, 3-[6-(4-Iodophenyl)-[1,2,4]-triazolo[3,4-b]-[1,3,4]-thiadiazol-3-yl]-1H-indole] came in with a melting point of 183 to 185 °C. The molecule further yielded an IC50 in the data set with KG1a of 1.66 ± 0.03 µM. Further, half-maximal inhibition with Jurkat (IC50) was put at 8.12 ± 0.16 µM. Also, the IC50 in the data set with HeLa amounted to 0.54 ± 0.02 µM. In addition, the IC50 with MDA-MB-231 was determined as 2.72 ± 0.32 µM.
The molecule `COc1ccc(-c2nn3c(-c4c[nH]c5ccccc45)nnc3s2)cc1` [Compound 5b, 3-[6-(4-Methoxyphenyl)-[1,2,4]-triazolo[3,4-b]-[1,3,4]-thiadiazol-3-yl]-1H-indole] came in with a melting point of 192 to 194 °C. At His-tagged Bcl-2 protein, the IC50 stood at 1.14 ± 0.09 µM. In the data set on KG1a, this molecule registered an IC50 of 3.14 ± 0.19 µM. In addition, in the data set with Jurkat, the “activity against Jurkat cells (in words)” value is “no activity” and the IC50 was above 100 µM. The IC50 with HeLa amounted to 2.7 ± 0.9 µM. In addition, in the data set with MDA-MB-231, the IC50 stood at 1.7 ± 0.61 µM.
The molecule `Cc1ccc(-c2nn3c(-c4c[nH]c5ccccc45)nnc3s2)cc1` [Compound 5c, 3-(6-p-Tolyl-[1,2,4]-triazolo[3,4-b]-[1,3,4]-thiadiazol-3-yl)-1H-indole] showed a melting point of 201 to 203 °C. Besides, the “activity against KG1A cell line (in words)” value in the data set with KG1a (Acute Myeloid Leukemia cell line) was “inactive”. Also, in the data set on KG1a, the IC50 was above 100 µM. In addition, in the data set with Jurkat, the “activity against Jurkat cells (in words)” value is given as “no activity” and the IC50 is above 100 µM. It took 12.5 ± 0.23 µM to reach half-maximal inhibition in the data set on HeLa (IC50). Also, in the data set on MDA-MB-231, the concentration for half-maximal inhibition (IC50) was 16.3 ± 0.19 µM.
Take `Brc1cccc(-c2nn3c(-c4c[nH]c5ccccc45)nnc3s2)c1` [Compound 5d, 3-[6-(3-Bromophenyl)-[1,2,4]-triazolo[3,4-b]-[1,3,4]-thiadiazol-3-yl]-1H-indole]: the melting point was in the range of 179 to 182 °C. In the data set on KG1a, this molecule registered an IC50 of 20.2 ± 0.46 µM. This molecule also yielded an IC50 with Jurkat of 45.5 ± 0.4 µM. Also, the IC50 in the data set with HeLa was 6.48 ± 0.67 µM. The molecule further gave an IC50 in the data set with MDA-MB-231 of 4.9 ± 0.75 µM.
In the case of `Brc1ccc(-c2nn3c(-c4c[nH]c5ccccc45)nnc3s2)cc1` [Compound 5e, 3-[6-(4-Bromophenyl)-[1,2,4]-triazolo[3,4-b]-[1,3,4]-thiadiazol-3-yl]-1H-indole], the melting point was 196 to 198 °C. The molecule further had an IC50 on His-tagged Bcl-2 protein of 4.6 ± 0.19 µM. This molecule showed a half-maximal inhibitory concentration (IC50) with KG1a of 4.9 ± 0.73 µM. In the data set with Jurkat, the “activity against Jurkat cells (in words)” value is recorded as “no activity” and the IC50 is above 100 µM. Moreover, inhibition in the data set with HeLa was half-maximal at 9.8 ± 0.3 µM (IC50). Besides, in the data set with MDA-MB-231, the IC50 stood at 8.29 ± 0.9 µM.
Molecule `Clc1cccc(-c2nn3c(-c4c[nH]c5ccccc45)nnc3s2)c1` [Compound 5f, 3-[6-(3-Chlorophenyl)-[1,2,4]-triazolo[3,4-b]-[1,3,4]-thiadiazol-3-yl]-1H-indole] came in with a melting point of 185 to 187 °C. Moreover, 10.2 ± 0.65 µM corresponded to half-maximal inhibition in the data set with KG1a (IC50). For the same molecule, in the data set on Jurkat, half-maximal inhibition (IC50) was put at 20.5 ± 0.52 µM. The same molecule returned an IC50 in the data set on HeLa of 3.6 ± 0.52 µM. 12.5 ± 0.66 µM corresponded to half-maximal inhibition with MDA-MB-231 (IC50).
Molecule `Fc1cccc(-c2nn3c(-c4c[nH]c5ccccc45)nnc3s2)c1` [Compound 5g, 3-[6-(3-Fluorophenyl)-[1,2,4]-triazolo[3,4-b]-[1,3,4]-thiadiazol-3-yl]-1H-indole] yielded a melting point of 183 to 185 °C. In the data set with KG1a, this molecule came in with an IC50 of 8.6 ± 0.22 µM. In the data set with Jurkat, this molecule showed an IC50 of 65.1 ± 1.25 µM. This molecule registered an IC50 in the data set with HeLa of 1.99 ± 0.28 µM. Moreover, the IC50 in the data set with MDA-MB-231 is 7.5 ± 0.98 µM.
For `O=[N+]([O-])c1ccc(-c2nn3c(-c4c[nH]c5ccccc45)nnc3s2)cc1` [Compound 5h, 3-[6-(4-Nitrophenyl)-[1,2,4]-triazolo[3,4-b]-[1,3,4]-thiadiazol-3-yl]-1H-indole], in that order: 196 to 198 °C, 34.5 ± 0.3 µM, 58.1 ± 1.3 µM, 22.1 ± 0.45 µM and 3.16 ± 0.32 µM.
`FC(F)(F)c1ccc(-c2nn3c(-c4c[nH]c5ccccc45)nnc3s2)cc1` [Compound 5i, 3-[6-(4-Trifluoromethylphenyl)-[1,2,4]-triazolo[3,4-b]-[1,3,4]-thiadiazol-3-yl]-1H-indole]: the melting point was 194 to 196 °C. On His-tagged Bcl-2 protein, this molecule returned an IC50 of 1.74 ± 0.15 µM. The molecule further displayed an IC50 with KG1a of 2.19 ± 0.72 µM. Moreover, in the data set with Jurkat, the “activity against Jurkat cells (in words)” value is recorded as “no activity” and the IC50 is above 100 µM. This molecule also showed an IC50 with HeLa of 2.7 ± 0.19 µM. The molecule further came in with an IC50 with MDA-MB-231 of 4.22 ± 0.38 µM.
Regarding `O=[N+]([O-])c1cccc(-c2nn3c(-c4c[nH]c5ccccc45)nnc3s2)c1` [Compound 5j, 3-[6-(3-Nitrophenyl)-[1,2,4]-triazolo[3,4-b]-[1,3,4]-thiadiazol-3-yl]-1H-indole], the IC50 in the data set on KG1a stood at 6.82 ± 0.45 µM; in the data set with Jurkat, 32.2 ± 1.2 µM; in the data set with HeLa, 2.18 ± 0.73 µM; with MDA-MB-231, 3.6 ± 0.28 µM.
`COc1ccc(-c2nn3c(-c4c[nH]c5ccccc45)nnc3s2)c(OC)c1` [Compound 5k, 3-[6-(2,4-Dimethoxyphenyl)-[1,2,4]-triazolo[3,4-b]-[1,3,4]-thiadiazol-3-yl]-1H-indole] registered a melting point of 178 to 180 °C. Also, the IC50 on His-tagged Bcl-2 protein is 0.32 µM and 0.3 µM and 0.34 µM and 0.36 µM. At His-tagged Bcl-2 protein (competitive Bcl-2 ELISA), the “ELISA IC50 compared to (−)-gossypol positive control” value was “two-fold lower”. The molecule also had an IC50 with KG1a of 0.31 ± 0.32 µM. Further, in the data set on Jurkat, the “activity against Jurkat cells (in words)” value was “without inhibiting; also recorded: no activity” and the IC50 is above 100 µM. Moreover, in data set [1], the IC50 was 0.31 to 0.7 µM. The midpoint of inhibition with HeLa, the IC50, lay at 0.57 ± 0.08 µM. In addition, the midpoint of inhibition in the data set with MDA-MB-231, the IC50, lay at 0.7 ± 0.3 µM.
As to `COc1cc(OC)cc(-c2nn3c(-c4c[nH]c5ccccc45)nnc3s2)c1` [Compound 5l, 3-[6-(3,5-Dimethoxyphenyl)-[1,2,4]-triazolo[3,4-b]-[1,3,4]-thiadiazol-3-yl]-1H-indole], the melting point fell in the range of 193 to 195 °C. Further, the 50% inhibitory concentration (IC50) on His-tagged Bcl-2 protein was determined as 0.45 ± 0.03 µM. The molecule also had an IC50 with KG1a of 1.15 ± 0.27 µM. For the same molecule, in the data set on Jurkat, the “activity against Jurkat cells (in words)” value is “no activity” and the IC50 was above 100 µM. The molecule further returned an IC50 with HeLa of 1.42 ± 0.17 µM. Besides, half-maximal inhibition with MDA-MB-231 (IC50) required 0.35 ± 0.29 µM.
For the molecule `Cc1cc2c(C(C)C)c(O)c(O)c(C=O)c2c(O)c1-c1c(C)cc2c(C(C)C)c(O)c(O)c(C=O)c2c1O` [Gossypol, gossypol, reference compound], the IC50 worked out at 4.2 ± 0.35 µM in the data set on KG1a, 18.1 ± 1.3 µM with Jurkat, 4.43 ± 0.54 µM in the data set on HeLa and 5.5 ± 0.35 µM in the data set with MDA-MB-231.
